Source: paper PMC4589371, “Molecular Binding Mechanism of TtgR Repressor to Antibiotics and Antimicrobials” (PLoS ONE, 2015)

Key:
TtgR (TtgR^WT) [1] = biological target: TtgR (TtgR^WT) (Pseudomonas putida, UniProt Q9AIU0, E78A); assay: biochemical
Description: (§1) isothermal titration calorimetry, one set of sites on TtgR (TtgR^WT)

TtgR (TtgR^WT) [2] = biological target: TtgR (TtgR^WT) (Pseudomonas putida, UniProt Q9AIU0, H114A); assay: biochemical
Description: as §1

TtgR (TtgR^WT) [3] = biological target: TtgR (TtgR^WT) (Pseudomonas putida, UniProt Q9AIU0, N110A); assay: biochemical
Description: as §1

TtgR (TtgR^WT) [4] = biological target: T1, TtgR (TtgR^WT) (Pseudomonas putida, UniProt Q9AIU0); assay: isothermal titration calorimetry, one set of sites; format: binding
T1 construct: homodimer

[5] = system: TtgR E78A (Pseudomonas putida DOT-T1E); assay: EMSA; conditions: 5 uM naringenin; EMSA: 10 mM Tris-HCl pH 7.0, 250 mM NaCl, 10 mM Mg acetate, 10 mM KCl, 5% glycerol, 0.1 mM EDTA, 5 mM DTT, 20 ug/ml poly(dI-dC), 200 ug/ml BSA; 10 min at 30 C …
[6] = system: TtgR H114A (Pseudomonas putida DOT-T1E); assay: EMSA; conditions: 5 uM naringenin; EMSA: 10 mM Tris-HCl pH 7.0, 250 mM NaCl, 10 mM Mg acetate, 10 mM KCl, 5% glycerol, 0.1 mM EDTA, 5 mM DTT, 20 ug/ml poly(dI-dC), 200 ug/ml BSA; 10 min at 30 C …
[7] = system: TtgR N110A (Pseudomonas putida DOT-T1E); assay: EMSA; conditions: 5 uM phloretin; EMSA: 10 mM Tris-HCl pH 7.0, 250 mM NaCl, 10 mM Mg acetate, 10 mM KCl, 5% glycerol, 0.1 mM EDTA, 5 mM DTT, 20 ug/ml poly(dI-dC), 200 ug/ml BSA; 10 min at 30 C …

Molecule | Kd (TtgR (TtgR^WT) [1]) [µM] | Kd (TtgR (TtgR^WT) [2]) [µM] | Kd (TtgR (TtgR^WT) [3]) [µM] | Kd (TtgR (TtgR^WT) [4]) [µM] | binding signal (% DNA released) [5] | binding signal (% DNA released) [6] | binding signal (% DNA dissociated) [7]
O=C(N[C@H](CO)[C@H](O)c1ccc([N+](=O)[O-])cc1)C(Cl)Cl [chloramphenicol] | 18.5 ± 1 | 8.5 ± 0.5 | 15.6 ± 2 | 5.6 ± 0.4 |  |  | 
ttgABC-ttgR intergenic region (operator), 189 bp |  |  |  |  | 30 | 30 | 66
O=C(CCc1ccc(O)cc1)c1c(O)cc(O)cc1O [phloretin] | 0.7 ± 0.1 | 1.3 ± 0.1 | 1 ± 0.1 | 1.5 ± 0.2 |  |  | 
